Results on four molecules are retold here after article PMC3748812 (Angewandte Chemie (International ed. in English), 2013).

The IC50 is the midpoint of a concentration-inhibition curve. A low value points to greater potency in that assay.

Assay type in all cases: biochemical
For experiment [1], the target named is T1, ethylbenzene dehydrogenase (EbDH) (Aromatoleum aromaticum, UniProt Q5P5I0). The experiment can be described thus: ethylbenzene hydroxylation activity assay. Conditions: native substrate; Km in text is cited from an earlier paper.
Experiment [2] addresses T1, ethylbenzene dehydrogenase (EbDH). In words: inhibition of ethylbenzene-dependent activity, dose response. Conditions: substrate ethylbenzene; preincubated with inhibitor.
Experiment [3] shares this target. The experiment can be described thus: inhibition of ethylbenzene-dependent activity. As to conditions: substrate ethylbenzene.

With `CCc1ccccc1` [ethylbenzene], the “ethylbenzene hydroxylation activity assay” value in experiment [1] is on record as “Nonlinear plots of the remaining ethylbenzene-dependent activity of EbDH”. In experiment [2], `CCB1C=CC=CN1` [B-ethyl-1,2-azaborine] returned an IC50 of 100 µM. Turning to `CCn1ccnc1` [N-ethylimidazole], in experiment [3], the IC50 was determined as 2200 µM. As for `CCN1BC=CC=C1` [N-ethyl-1,2-azaborine], it took 2.8 µM to reach half-maximal inhibition in experiment [2] (IC50).
